Test: Waters ACQUITY UPLC BEH C18, 100 × 2.1 mm, 1.7 µm, 40 °C, 0.3 to 0.4 mL/min, estimated dead time 0.63 min; A: water + 0.1% formic acid; B: methanol + 0.1% formic acid; gradient (min/%B) 0/0.5 0.1/0.5 10/80 10.1/99.5 12/99.5
Conditions: stereoisomer not certain

Row | LC retention time | SMILES
1 | 7.33 min | CC1(C)CCC2(C(=O)O)C(O)CC3(C)C(=CCC4C5(C)CCC(OC6OC(CO)C(O)C(O)C6O)C(C)(C)C5CCC43C)C2C1 (stereo not given)
2 | 1.8 min | CCC(C)C(N)C(=O)NC(CO)C(=O)O (stereo not given)
3 | 8.02 min | COc1cc(C=Cc2ccc(O)cc2)cc(OC)c1
4 | 2.71 min | O=S(=O)(O)ON=C(CC(O)c1ccccc1)SC1OC(CO)C(O)C(O)C1O (stereo not given)
5 | 4.24 min | COc1cc2ccc(=O)oc2cc1O
6 | 3.43 min | CS(=O)CCCCCCC#N (stereo not given)
7 | 3.31 min | C=CC1CN2CCC1CC2C(O)c1ccnc2ccc(OC)cc12 (stereo not given)
8 | 6.36 min | CC1(C(=O)O)CCC2(C)CCC3(C)C(=CC(=O)C4C5(C)CCC(OC6OC(C(=O)O)C(O)C(O)C6OC6OC(C(=O)O)C(O)C(O)C6O)C(C)(CO)C5CCC43C)C2C1 (stereo not given)
9 | 4.55 min | COC(=O)C1=C2Nc3ccccc3C23CCN2CCC1C(C(C)OC)C23 (stereo not given)
10 | 3.44 min | O=c1cc(-c2ccc(O)c(O)c2)oc2cc(O)c(C3OC(CO)C(O)C(O)C3OC3OC(CO)C(O)C(O)C3O)c(O)c12 (stereo not given)
11 | 2.71 min | O=C(O)C=Cc1ccc(O)cc1
12 | 7.91 min | C=C1CCCC2(C)CC3(O)OC(=O)C(C)=C3CC12 (stereo not given)
13 | 9.97 min | CCCCCC(=O)OC1C(CO)OC(OC2(CO)OC(CO)C(OC(C)=O)C2O)C(OC(=O)CCCCC)C1OC(=O)CCCCC (stereo not given)
14 | 5.59 min | COc1cccc2c(=O)c3ccoc3n(C)c12
15 | 3.54 min | COc1cc(C=CC(=O)OC2OC(CO)C(O)C(O)C2O)cc(OC)c1O (stereo not given)
16 | 3.77 min | C=CC1C(OC2OC(CO)C(O)C(O)C2O)OC=C2C(=O)N3CCC(=O)c4ccccc4NC(=O)C3CC21 (stereo not given)
17 | 5.19 min | COc1cc(C=CC(=O)NCCCCNC(=O)C=Cc2ccc(O)c(OC)c2)ccc1O
18 | 5.21 min | O=C(C=Cc1ccc(O)cc1)OCC1OC(Oc2c(-c3ccc(O)cc3)oc3cc(O)cc(O)c3c2=O)C(O)C(O)C1O (stereo not given)
19 | 5.59 min | CC1=C(CCC(C)COC2OC(CO)C(O)C(O)C2O)OC2CC3C4CC=C5CC(O)CC(OC6OCC(O)C(O)C6OC6OC(C)C(O)C(O)C6O)C5(C)C4CCC3(C)C12 (stereo not given)
20 | 5.25 min | CCCCCCCCNC(O)CCc1ccc(O)c(OC)c1 (stereo not given)
21 | 1.77 min | O=C(O)C1CCC(=O)N1CC1(O)OC(CO)C(O)C1O (stereo not given)
22 | 7.09 min | CC1OC(OC2C(OC3C(OC4CCC5(C)C(CCC6(C)C5CC=C5C7CC(C)(C)CC(O)C7(C)CCC56C)C4(C)CO)OC(C(=O)O)C(O)C3O)OC(CO)C(O)C2O)C(O)C(O)C1O (stereo not given)

Row | LC retention time | SMILES
23 | 10 min | CCCCCCCCCCCCCCCC(=O)OCC(O)COP(=O)(O)OCCN (stereo not given)
24 | 5.73 min | CC1(C)CC(O)C2(C)CCC3(C)C(=CCC4C5(C)CCC(OC6OC(C(=O)O)C(O)C(O)C6OC6OC(CO)C(O)C(O)C6OC6OCC(O)C(O)C6O)C(C)(CO)C5CCC43C)C2C1 (stereo not given)
25 | 1.87 min | CC(C)CC(N)C(=O)O (stereo not given)
26 | 3.23 min | COc1cc(-c2oc3cc(O)cc(O)c3c(=O)c2OC2OC(CO)C(O)C(O)C2O)ccc1OC1OC(CO)C(O)C(O)C1O (stereo not given)
27 | 5.3 min | O=C1CC(c2ccc(O)cc2)Oc2cc(O)ccc21 (stereo not given)
28 | 4.88 min | O=C([O-])CC(=O)OCC1OC(OC2Cc3c(O)cc(O)cc3[O+]=C2c2ccc(O)cc2)C(O)C(O)C1O (stereo not given)
29 | 4.58 min | CCCCCCCC(O)SCC(NC(=O)CCC(N)C(=O)O)C(=O)NCC(=O)O (stereo not given)
30 | 2.06 min | O=C1NCC(=O)N2CCCC12 (stereo not given)
31 | 3.72 min | C=CC1C(OC2OC(CO)C(O)C(O)C2O)OC=C(C(=O)O)C1Cc1nccc2c1[nH]c1ccccc12 (stereo not given)
32 | 4.18 min | COC(=O)C1CC23CCC[N+]4([O-])CCC5(c6ccccc6NC15CC2)C34 (stereo not given)
33 | 5.07 min | COc1ccc(CCC(=O)c2c(O)cc(OC3OC(CO)C(O)C(O)C3OC3OC(C)C(O)C(O)C3O)cc2O)cc1O (stereo not given)
34 | 1.93 min | Nc1nc2c(ncn2C2OC(CO)C(O)C2O)c(=O)[nH]1 (stereo not given)
35 | 5.34 min | O=c1cc(-c2ccc(O)c(O)c2)oc2cc(O)cc(O)c12
36 | 3.67 min | COc1cc(CC(COC2OC(CO)C(O)C(O)C2O)C(COC2OC(CO)C(O)C(O)C2O)Cc2ccc(O)c(OC)c2)ccc1O (stereo not given)
37 | 3.69 min | C=CC1C(OC2OC(CO)C(O)C(O)C2O)OC=C(C(=O)O)C1Cc1nccc2c1[nH]c1ccc(O)cc12 (stereo not given)
38 | 5.88 min | CC(C)=CCCC(C)(OC1OC(COC2OC(CO)C(O)C(O)C2O)C(O)C(O)C1O)C1CCC2(C)C1C(O)CC1C3(C)CCC(OC4OC(CO)C(O)C(O)C4OC4OC(CO)C(O)C(O)C4O)C(C)(C)C3CCC12C (stereo not given)
39 | 4.76 min | COc1cc(C=CC=O)ccc1O
40 | 3.72 min | O=c1c(O)c(-c2ccc(O)c(O)c2)oc2cc(OC3OC(CO)C(O)C(O)C3O)c(O)c(O)c12 (stereo not given)
41 | 5.38 min | COc1ccc(-c2coc3cc(OC4OC(COC(=O)CC(=O)O)C(O)C(O)C4O)c(OC)cc3c2=O)cc1 (stereo not given)
42 | 4.38 min | O=c1oc2cc(OC3OC(CO)C(O)C(O)C3O)ccc2c2oc3cc(O)ccc3c12 (stereo not given)
43 | 2.08 min | CS(=O)CCCCCCCN (stereo not given)
44 | 5.36 min | CC1C(=O)OC2C(O)C34C5CC(C(C)(C)C)C36C(OC(=O)C6O)OC4(C(=O)O5)C12O (stereo not given)

Row | LC retention time | SMILES
45 | 3.22 min | O=C1CC(c2ccc(O)c(O)c2)Oc2c1c(OC1OC(CO)C(O)C(O)C1O)cc(O)c2C1OCC(O)C(O)C1O (stereo not given)
46 | 4.42 min | CC(=O)OCC1OC(Oc2c(-c3ccc(O)c(O)c3)oc3cc(O)cc(O)c3c2=O)C(O)C(O)C1O (stereo not given)
47 | 1.86 min | CC=CS(=O)CC(NC=C1OCC(O)C(O)C1O)C(=O)O (stereo not given)
48 | 2.86 min | C=CCNC(=O)C=Cc1ccc(O)c(OC)c1
49 | 7.96 min | CC1=C(O)C(=O)CC(OC2CC(C)(C)CC3C4=CCC5C6(C)CCC(OC7OC(C(=O)O)C(O)C(O)C7OC7OC(C(=O)O)C(O)C(O)C7O)C(C)(CO)C6CCC5(C)C4(C)CCC23C)O1 (stereo not given)
50 | 3.06 min | OCCc1c[nH]c2ccccc12
51 | 4.79 min | CCCCCCCCCCCCC(O)C(O)C(COC1OC(CC(C(=O)O)C(=O)O)C(O)C(O)C1O)NC(C)=O (stereo not given)
52 | 4.6 min | COc1ccc(-c2cc(=O)c3c(O)cc(OC4OC(C(=O)O)C(O)C(O)C4O)cc3o2)cc1O (stereo not given)
53 | 2.33 min | O=C(O)C(Cc1ccccc1)NCC1(O)OC(CO)C(O)C1O (stereo not given)
54 | 5.42 min | COc1ccc(C2CC(=O)c3c(O)cc(OC4OC(CO)C(O)C(O)C4OC4OC(C)C(O)C(O)C4O)cc3O2)cc1 (stereo not given)
55 | 5.3 min | COc1cc2c(=O)c(-c3ccc(O)cc3)coc2cc1O
56 | 3.78 min | CC12CC3(O)OC(O1)C1(COC(=O)c4ccccc4)C3CC21OC1OC(CO)C(O)C(O)C1O (stereo not given)
57 | 5.16 min | O=C(O)CC(=O)OCC1OC(Oc2cc(O)c3c(=O)cc(-c4ccc(O)cc4)oc3c2)C(O)C(O)C1O (stereo not given)
58 | 4.65 min | CCC(C)C(=O)OC1C(O)C2C(CN3CC(C)CCC3C2(C)O)C2CC34OC5(O)C(OC(=O)C(C)(O)C(C)O)CCC3(C)C5CC(O)C4C21O (stereo not given)
59 | 7.84 min | CC(C)=CCc1c(O)cc(O)c(CC=C(C)C)c1CCc1ccc(O)c(O)c1
60 | 6.34 min | O=C(Cc1c[nH]c2ccccc12)NC(Cc1ccccc1)C(=O)O (stereo not given)
61 | 3.23 min | CC(C)C(N)C(=O)NC(Cc1ccccc1)C(=O)O (stereo not given)
62 | 5.42 min | COc1ccc(C=CC(=O)c2c(O)cc(OC3OC(CO)C(O)C(O)C3OC3OC(C)C(O)C(O)C3O)cc2O)cc1 (stereo not given)
63 | 3.47 min | Cc1ccc2ccc3ccc(C)nc3c2n1
64 | 2 min | NC(C(=O)O)c1ccccc1 (stereo not given)
65 | 2.87 min | COC(=O)C=Cc1ccccc1
66 | 4 min | O=C1C(=Cc2ccc(O)c(O)c2)Oc2c1ccc(OC1OC(CO)C(O)C(O)C1O)c2O (stereo not given)

Row | SMILES | LC retention time
67 | COc1ccc(CC2c3cc(OC)c(OC)cc3CCN2C)cc1OC (stereo not given) | 4.26 min
68 | Cc1c2ccncc2c(C)c2c1[nH]c1ccccc12 | 4.93 min
69 | COCC12CN(C)C3C4C(OC)C1C3(C(OC)CC2O)C1CC2(O)C(OC)C(O)C4(OC(C)=O)C1C2OC(=O)c1ccccc1 (stereo not given) | 5.61 min
70 | CCC1CN2CCc3c([nH]c4ccccc34)C2CC1C(=COC)C(=O)OC (stereo not given) | 5.85 min
71 | COc1cc2c3c(c1OC)-c1cc4c(cc1CC3N(C)CC2)OCO4 (stereo not given) | 4.89 min
72 | CN1CCCCC1c1ccc(-c2cccnc2)nc1 (stereo not given) | 2.37 min
73 | CCC1CN2CCc3c([nH]c4cccc(OC)c34)C2CC1C(=COC)C(=O)OC (stereo not given) | 5.54 min
74 | CC(C)C(O)(C(=O)OCC1CC[N+]2([O-])CCCC12)C(C)O (stereo not given) | 3.11 min
75 | O=c1ccc2cc(OC3OC(CO)C(O)C(O)C3O)c(O)cc2o1 (stereo not given) | 2.87 min
76 | CC=C1CN2C3CC1C(CO)C2Cc1c3[nH]c2ccccc12 (stereo not given) | 3.58 min
77 | CCCCCCCCC=CCCCCCCCC(=O)OCC(O)COP(=O)(O)OCCN (stereo not given) | 10.2 min
78 | CC=C1CN2C3CC1C1COC(c4c3[nH]c3cc(OC)ccc43)C12 (stereo not given) | 4.42 min
79 | COc1cc2c(cc1O)CC1c3c(cc(O)c(OC)c3-2)CCN1C (stereo not given) | 3.35 min
80 | COCC=C1CN2C3CC45C(=Nc6c(OC)cc(OC)c(OC)c64)OCC3C1CC25 (stereo not given) | 3.82 min
81 | C=CC12CN(C)C3C4COC(CC41)C1(C(=O)N(OC)c4ccccc41)C32 (stereo not given) | 4.05 min
82 | COc1cc2c3cc1Oc1c(OC)c(OC)cc4c1C(Cc1ccc(cc1)Oc1cc(ccc1O)CC3N(C)CC2)N(C)CC4 (stereo not given) | 3.76 min
83 | COc1ccc2c(c[n+](C)c3c4cc5c(cc4ccc23)OCO5)c1OC | 5.3 min
84 | CCC1=NC2CC3(C(=O)N(OC)c4ccccc43)C3CC1C2CO3 (stereo not given) | 3.99 min
85 | CC1CCC2(NC1)OC1CC3C4CCC5CC(OC6OC(CO)C(OC7OC(CO)C(O)C(OC8OCC(O)C(O)C8O)C7OC7OC(CO)C(O)C(O)C7O)C(O)C6O)CCC5(C)C4CCC3(C)C1C2C (stereo not given) | 4.81 min

From the RepoRT retention time repository
